Reference: BindingDB's records for doi:10.1021/jf000548p (Institut Pasteur Korea, 2020)

Columns and labels:
[1] = target: Potassium voltage-gated channel subfamily H member 2 (Homo sapiens, UniProt Q12809); experiment: Inhibition of hERG
[2] = target: Cytochrome P450 2C9 (Homo sapiens, UniProt P11712); experiment: Inhibition of CYP2C9 (unknown origin)
[3] = target: T1, Cytochrome P450 1A2 (Homo sapiens, UniProt P05177); experiment: Inhibition of CYP1A2 (unknown origin)
T1 sequence (P05177 whole entry): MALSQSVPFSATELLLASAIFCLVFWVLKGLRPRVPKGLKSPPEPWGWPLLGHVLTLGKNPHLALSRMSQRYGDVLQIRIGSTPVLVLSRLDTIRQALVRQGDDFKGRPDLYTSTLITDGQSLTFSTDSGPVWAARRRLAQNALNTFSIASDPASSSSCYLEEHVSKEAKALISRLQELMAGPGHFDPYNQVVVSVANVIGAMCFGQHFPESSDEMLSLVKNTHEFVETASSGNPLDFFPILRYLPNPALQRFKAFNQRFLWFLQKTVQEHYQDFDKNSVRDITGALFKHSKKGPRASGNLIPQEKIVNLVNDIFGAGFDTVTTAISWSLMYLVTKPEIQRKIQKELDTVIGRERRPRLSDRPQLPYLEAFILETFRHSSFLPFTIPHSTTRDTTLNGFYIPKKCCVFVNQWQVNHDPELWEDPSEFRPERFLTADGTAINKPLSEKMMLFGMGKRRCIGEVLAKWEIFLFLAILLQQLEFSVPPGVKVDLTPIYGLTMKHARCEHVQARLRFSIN

[4] = target: Cytochrome P450 2C19 (Homo sapiens, UniProt P33261); experiment: Inhibition of CYP2C19 (unknown origin)
Chain of Cytochrome P450 2C19 (P33261 whole entry): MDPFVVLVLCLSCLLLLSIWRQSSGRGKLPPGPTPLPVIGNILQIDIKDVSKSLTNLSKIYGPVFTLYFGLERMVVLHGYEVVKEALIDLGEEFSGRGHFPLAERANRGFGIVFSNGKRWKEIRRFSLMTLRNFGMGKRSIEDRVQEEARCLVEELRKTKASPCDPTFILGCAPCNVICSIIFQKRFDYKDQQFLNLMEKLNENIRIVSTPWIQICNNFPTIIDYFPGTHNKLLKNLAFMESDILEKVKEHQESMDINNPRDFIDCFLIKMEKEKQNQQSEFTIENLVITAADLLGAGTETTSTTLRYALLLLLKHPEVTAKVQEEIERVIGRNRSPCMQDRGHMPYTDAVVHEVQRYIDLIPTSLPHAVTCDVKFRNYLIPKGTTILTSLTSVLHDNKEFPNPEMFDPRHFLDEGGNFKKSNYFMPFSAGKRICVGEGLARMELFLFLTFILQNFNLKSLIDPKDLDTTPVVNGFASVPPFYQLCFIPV

[5] = target: Cytochrome P450 3A4 (Homo sapiens, UniProt P08684); experiment: Inhibition of CYP3A4 (unknown origin)
Chain of Cytochrome P450 3A4 (P08684 whole entry): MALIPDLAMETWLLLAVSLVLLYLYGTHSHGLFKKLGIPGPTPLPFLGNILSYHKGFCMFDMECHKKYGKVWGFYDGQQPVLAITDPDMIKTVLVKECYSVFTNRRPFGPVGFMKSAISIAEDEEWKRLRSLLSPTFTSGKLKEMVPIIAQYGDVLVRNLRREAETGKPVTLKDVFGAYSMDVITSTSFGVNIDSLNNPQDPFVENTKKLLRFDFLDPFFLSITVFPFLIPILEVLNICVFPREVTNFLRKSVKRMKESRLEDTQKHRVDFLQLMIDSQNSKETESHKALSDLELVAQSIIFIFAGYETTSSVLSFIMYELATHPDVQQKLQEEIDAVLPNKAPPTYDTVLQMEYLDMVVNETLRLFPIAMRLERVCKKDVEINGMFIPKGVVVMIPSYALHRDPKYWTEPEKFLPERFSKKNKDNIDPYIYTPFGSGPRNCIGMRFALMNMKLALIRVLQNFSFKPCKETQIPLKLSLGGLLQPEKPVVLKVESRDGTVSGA

[6] = target: Cytochrome P450 2D6 (Homo sapiens, UniProt P10635); experiment: Inhibition of CYP2D6 (unknown origin)
Chain of Cytochrome P450 2D6 (P10635 whole entry): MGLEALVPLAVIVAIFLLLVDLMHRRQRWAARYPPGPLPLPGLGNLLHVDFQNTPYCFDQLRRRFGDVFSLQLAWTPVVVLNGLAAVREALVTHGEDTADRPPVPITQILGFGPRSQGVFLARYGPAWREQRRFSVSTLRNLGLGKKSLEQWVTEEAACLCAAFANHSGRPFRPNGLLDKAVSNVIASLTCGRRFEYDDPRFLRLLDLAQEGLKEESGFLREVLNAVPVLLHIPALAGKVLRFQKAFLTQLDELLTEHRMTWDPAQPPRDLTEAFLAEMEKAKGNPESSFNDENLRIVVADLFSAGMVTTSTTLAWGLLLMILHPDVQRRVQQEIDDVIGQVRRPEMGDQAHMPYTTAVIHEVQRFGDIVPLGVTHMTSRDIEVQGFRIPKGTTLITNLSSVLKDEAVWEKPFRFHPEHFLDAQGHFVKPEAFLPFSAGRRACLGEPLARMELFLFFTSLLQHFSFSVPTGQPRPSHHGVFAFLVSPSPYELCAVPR

Chain of Potassium voltage-gated channel subfamily H member 2 (Q12809 whole entry): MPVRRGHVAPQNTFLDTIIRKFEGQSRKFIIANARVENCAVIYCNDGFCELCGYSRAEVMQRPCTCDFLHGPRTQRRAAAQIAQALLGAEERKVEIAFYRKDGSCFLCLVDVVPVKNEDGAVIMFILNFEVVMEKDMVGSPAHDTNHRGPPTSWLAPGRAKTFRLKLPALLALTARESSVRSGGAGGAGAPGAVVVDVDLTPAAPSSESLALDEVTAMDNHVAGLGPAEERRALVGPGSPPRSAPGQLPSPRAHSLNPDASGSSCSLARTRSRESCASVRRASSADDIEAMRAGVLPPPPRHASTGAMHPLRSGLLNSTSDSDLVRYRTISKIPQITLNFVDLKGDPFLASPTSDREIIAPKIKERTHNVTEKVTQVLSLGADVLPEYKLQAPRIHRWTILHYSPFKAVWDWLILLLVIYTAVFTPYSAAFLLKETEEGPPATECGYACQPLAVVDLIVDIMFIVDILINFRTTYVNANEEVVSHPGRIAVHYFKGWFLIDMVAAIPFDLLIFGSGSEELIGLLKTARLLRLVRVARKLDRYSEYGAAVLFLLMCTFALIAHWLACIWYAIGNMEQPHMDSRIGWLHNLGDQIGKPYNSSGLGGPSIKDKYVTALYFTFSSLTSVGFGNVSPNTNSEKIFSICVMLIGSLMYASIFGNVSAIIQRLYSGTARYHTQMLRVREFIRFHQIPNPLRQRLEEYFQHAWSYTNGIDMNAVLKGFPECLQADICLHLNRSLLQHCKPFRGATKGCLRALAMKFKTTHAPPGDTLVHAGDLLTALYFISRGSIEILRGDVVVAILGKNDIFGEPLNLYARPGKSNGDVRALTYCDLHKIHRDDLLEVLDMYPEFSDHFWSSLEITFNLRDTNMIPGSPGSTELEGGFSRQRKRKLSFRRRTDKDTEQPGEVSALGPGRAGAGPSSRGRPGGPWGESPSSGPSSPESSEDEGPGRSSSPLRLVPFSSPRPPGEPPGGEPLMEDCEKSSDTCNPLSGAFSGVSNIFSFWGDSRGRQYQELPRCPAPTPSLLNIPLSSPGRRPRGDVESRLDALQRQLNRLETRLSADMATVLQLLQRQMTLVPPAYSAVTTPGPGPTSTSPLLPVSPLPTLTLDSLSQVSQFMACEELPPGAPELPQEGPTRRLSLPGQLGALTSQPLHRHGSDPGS
Chain of Cytochrome P450 2C9 (P11712 whole entry): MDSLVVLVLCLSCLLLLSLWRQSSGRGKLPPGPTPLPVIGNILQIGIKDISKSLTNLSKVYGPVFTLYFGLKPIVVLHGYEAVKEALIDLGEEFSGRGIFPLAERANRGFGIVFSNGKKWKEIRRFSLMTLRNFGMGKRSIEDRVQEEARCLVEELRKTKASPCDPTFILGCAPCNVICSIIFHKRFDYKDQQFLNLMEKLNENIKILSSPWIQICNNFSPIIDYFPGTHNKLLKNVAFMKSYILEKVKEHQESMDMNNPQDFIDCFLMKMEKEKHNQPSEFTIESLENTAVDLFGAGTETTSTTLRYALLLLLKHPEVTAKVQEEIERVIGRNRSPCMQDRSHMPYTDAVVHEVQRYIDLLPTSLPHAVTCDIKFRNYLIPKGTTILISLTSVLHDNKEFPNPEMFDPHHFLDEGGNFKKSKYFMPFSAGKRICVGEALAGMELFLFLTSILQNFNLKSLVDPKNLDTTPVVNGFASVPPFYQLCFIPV

In the case of `O=C(Nc1ccc(-c2ccc(F)cn2)cc1)c1cc2sc(NCCN3CCOCC3)nc2s1`, the IC50 [1] is reported as 27.6 µM, the IC50 [2] is reported as 7.41 µM and the IC50 [3] is reported as greater than 100 µM. For the same compound, the IC50 [4] was greater than 100 µM, the IC50 [5] was 6.95 µM and the IC50 [6] was 6.85 µM.
With `Cc1nc2cc(NC(=O)c3cc4sc(N5CCC(C(=O)N(C)C)CC5)nc4s3)ccc2o1` the IC50 [1] was greater than 30 µM, the IC50 [2] was greater than 50 µM and the IC50 [3] was greater than 50 µM. The IC50 [4] was greater than 50 µM, the IC50 [5] was greater than 50 µM and the IC50 [6] was greater than 50 µM.
